± gives the standard deviation of the averaged measurements.
Test system: G401
Experiment: relative viability vs DMSO control (72 h) (fraction); higher = more viable cells
How it was run: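 A 5 µM positive control and 0.1% DMSO vehicle ran alongside sarcoma cell lines seeded in 384-well plates to reach 80–90% confluence. Serially diluted compound, 2.5 µl from source plates of 10 mM to 0.0002 mM, was added after 24 h, and the plates were held 72 h at 37 °C, 5% CO2. Relative viability was worked out from ATPLite readings as percent growth averaged over up to triplicate wells. The values were rescaled so that 1 is full and 0 is none.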

| SMILES | relative viability (0.00017 µM) | relative viability (0.00051 µM) | relative viability (0.00152 µM) | relative viability (0.00457 µM) | relative viability (0.01372 µM) | relative viability (0.04115 µM) | relative viability (0.1235 µM) | relative viability (0.3704 µM) | relative viability (1.111 µM) | relative viability (3.333 µM) | relative viability (10 µM) |
| --- | --- | --- | --- | --- | --- | --- | --- | --- | --- | --- | --- |
| O=C(Nc1cnn2ccc(N3CCC[C@@H]3c3cc(F)ccc3F)nc12)N1CC[C@H](O)C1 [Larotrectinib] | 1.032 ± 0.0041 | 1.03 ± 0.016 | 1.021 ± 0.0029 | 1.04 ± 0.033 | 1.04 ± 0.03 | 1.01 ± 0.019 | 1.02 ± 0.028 | 1 ± 0.014 | 1 ± 0.048 | 0.97 ± 0.025 | 0.916 ± 0.034 |
| COCc1c(-c2cc3cc(C)cc(OC)c3s2)c2c(N)ncnn2c1CN1CCNC(=O)C1 [Rogaratinib] | 1.05 ± 0.015 | 1.06 ± 0.037 | 1.02 ± 0.031 | 1.01 ± 0.011 | 1.018 ± 0.0054 | 0.967 ± 0.038 | 0.8878 ± 0.0073 | 0.68 ± 0.015 | 0.592 ± 0.024 | 0.532 ± 0.043 | 0.375 ± 0.0068 |
| Cn1cnc2c(F)c(Nc3ccc(Br)cc3F)c(C(=O)NOCCO)cc21 [Binimetinib] | 1.01 ± 0.025 | 1.05 ± 0.019 | 1.03 ± 0.033 | 1.01 ± 0.011 | 0.983 ± 0.023 | 0.904 ± 0.0051 | 0.886 ± 0.029 | 0.859 ± 0.021 | 0.782 ± 0.02 | 0.716 ± 0.046 | 0.584 ± 0.038 |
| Cn1cc(-c2cc3c(N4CCN(c5ncc([C@@](C)(N)c6ccc(F)cc6)cn5)CC4)ncnn3c2)cn1 [Avapritinib] | 0.895 ± 0.086 | 0.91 ± 0.036 | 0.907 ± 0.046 | 0.901 ± 0.023 | 0.922 ± 0.059 | 0.926 ± 0.074 | 0.918 ± 0.032 | 0.842 ± 0.033 | 0.701 ± 0.044 | 0.627 ± 0.012 | 0.506 ± 0.011 |
| C[C@]1(O)C[C@@H](c2nc(-c3ccc4ccc(-c5ccccc5)nc4c3)c3c(N)nccn32)C1 [Linsitinib] | 1 ± 0.063 | 0.974 ± 0.026 | 1.02 ± 0.048 | 0.955 ± 0.013 | 0.992 ± 0.023 | 0.894 ± 0.034 | 0.791 ± 0.049 | 0.668 ± 0.013 | 0.627 ± 0.007 | 0.562 ± 0.017 | 0.466 ± 0.026 |
| Cc1cc(Nc2ncnc3ccc(NC4=NC(C)(C)CO4)cc23)ccc1Oc1ccn2ncnc2c1 [Tucatinib] | 1.03 ± 0.042 | 1.04 ± 0.039 | 1.02 ± 0.04 | 1.02 ± 0.037 | 1.01 ± 0.037 | 0.985 ± 0.036 | 1.02 ± 0.026 | 1.01 ± 0.026 | 1.01 ± 0.035 | 0.984 ± 0.025 | 0.985 ± 0.031 |
| Nc1cc(C(F)(F)F)c(-c2cc(N3CCOCC3)nc(N3CCOCC3)n2)cn1 [Buparlisib] | 0.957 ± 0.011 | 0.983 ± 0.013 | 0.932 ± 0.024 | 0.966 ± 0.022 | 1 ± 0.027 | 0.928 ± 0.041 | 0.86 ± 0.027 | 0.767 ± 0.037 | 0.594 ± 0.014 | 0.304 ± 0.005 | 0.237 ± 0.0068 |
| C[C@@H]1CCN(C(=O)CC#N)C[C@@H]1N(C)c1ncnc2[nH]ccc12 [Tofacitinib] | 1.07 ± 0.026 | 1.044 ± 0.0027 | 1.06 ± 0.027 | 1.02 ± 0.015 | 1.05 ± 0.012 | 1.05 ± 0.026 | 1.03 ± 0.035 | 1.07 ± 0.048 | 1.04 ± 0.045 | 1.06 ± 0.056 | 1.06 ± 0.037 |
| COc1cc2/c(=N/c3ccc(Br)cc3F)nc[nH]c2cc1OCC1CCN(C)CC1 [Vandetanib] | 0.983 ± 0.019 | 0.98623 ± 0.00074 | 0.989 ± 0.019 | 0.99 ± 0.028 | 0.993 ± 0.025 | 0.968 ± 0.025 | 0.971 ± 0.015 | 0.988 ± 0.033 | 0.87 ± 0.013 | 0.736 ± 0.0092 | 0.0218 ± 0.0004 |
| CCCS(=O)(=O)Nc1ccc(F)c(C(=O)c2c[nH]c3ncc(-c4ccc(Cl)cc4)cc23)c1F [Vemurafenib] | 1.01 ± 0.0022 | 1.02 ± 0.016 | 1.01 ± 0.017 | 1.004 ± 0.01 | 1.01 ± 0.024 | 1 ± 0.03 | 1.02 ± 0.0078 | 1.031 ± 0.0097 | 1.01 ± 0.011 | 1.01 ± 0.021 | 0.753 ± 0.023 |
| C=CC(=O)N1CCC([C@@H]2CCNc3c(C(N)=O)c(-c4ccc(Oc5ccccc5)cc4)nn32)CC1 [Zanubrutinib] | 0.964 ± 0.022 | 0.96 ± 0.023 | 0.99 ± 0.023 | 0.99 ± 0.024 | 0.946 ± 0.044 | 0.957 ± 0.031 | 0.957 ± 0.026 | 0.9805 ± 0.0066 | 0.932 ± 0.035 | 0.872 ± 0.029 | 0.801 ± 0.039 |
| CC(=O)Nc1cccc(-n2c(=O)n(C3CC3)c(=O)c3c(Nc4ccc(I)cc4F)n(C)c(=O)c(C)c32)c1 [Trametinib] | 1.01 ± 0.054 | 1 ± 0.019 | 0.952 ± 0.018 | 0.906 ± 0.029 | 0.845 ± 0.032 | 0.765 ± 0.017 | 0.627 ± 0.011 | 0.38 ± 0.027 | 0.184 ± 0.0096 | 0.144 ± 0.014 | 0.12 ± 0.012 |
| C=CC(=O)N1CCC[C@@H](n2nc(-c3ccc(Oc4ccccc4)cc3)c3c(N)ncnc32)C1 [Ibrutinib] | 1.03 ± 0.025 | 1.03 ± 0.095 | 1.03 ± 0.037 | 1.01 ± 0.0057 | 1.01 ± 0.025 | 1.05 ± 0.013 | 0.998 ± 0.072 | 0.995 ± 0.05 | 1.02 ± 0.013 | 0.922 ± 0.045 | 0.668 ± 0.049 |
| Cc1ccc(F)c(NC(=O)Nc2ccc(-c3cccc4[nH]nc(N)c34)cc2)c1 [Linifanib] | 1.03 ± 0.045 | 1.03 ± 0.087 | 0.996 ± 0.021 | 1.02 ± 0.02 | 1.01 ± 0.064 | 0.994 ± 0.01 | 0.956 ± 0.031 | 0.956 ± 0.048 | 0.928 ± 0.04 | 0.915 ± 0.013 | 0.9524 ± 0.0058 |
